Laboratory results reported in the supplement of paper PMC10307832.

Legend:
Assay in all cases: relative viability (nuclei count vs DMSO), 5 days (fraction); higher = more cells survive
[1] = compound: C1=CC=C2C(=C1)N=C(S2)C(C#N)C3=NC(=NC=C3)NCCC4=CN=CC=C4 + CC(=O)c1c(C)c2cnc(Nc3ccc(N4CCNCC4)cn3)nc2n(C2CCCC2)c1=O [Palbociclib] (partner 0.5 µM)
How it was run: (§1)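 Lung cancer cell lines were seeded in 1536-well plates and dosed by pin tool the next day, with either a single drug or a fixed anchor-drug dose combined with five library-drug doses (not always all listed) spaced in √10 steps. Five days later, one step fixed the cells and stained their nuclei (final 0.05% Triton X-100, 1% formaldehyde, 1 ug/ml Hoechst), and nuclei were counted on 4× images. Relative viability is the nuclei count in treated wells divided by the count in vehicle wells, and each value is the median of duplicate plates.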

[2] = compound: C1=CC=C2C(=C1)N=C(S2)C(C#N)C3=NC(=NC=C3)NCCC4=CN=CC=C4 + NC(=O)Nc1cc(-c2cccc(F)c2)sc1C(=O)N[C@H]1CCCNC1 [AZD7762] (partner 0.2 µM)
How it was run: as §1

CUDC-101 + Trametinib = compound: C#Cc1cccc(Nc2ncnc3cc(OC)c(OCCCCCCC(=O)NO)cc23)c1 [CUDC-101] + CC(=O)Nc1cccc(-n2c(=O)n(C3CC3)c(=O)c3c(Nc4ccc(I)cc4F)n(C)c(=O)c(C)c32)c1 [Trametinib] (partner 0.02 µM)
How it was run: as §1

CUDC-101 + Crizotinib = compound: C#Cc1cccc(Nc2ncnc3cc(OC)c(OCCCCCCC(=O)NO)cc23)c1 [CUDC-101] + C[C@@H](Oc1cc(-c2cnn(C3CCNCC3)c2)cnc1N)c1c(Cl)ccc(F)c1Cl [Crizotinib] (partner 1 µM)
How it was run: as §1

| Cell Line | relative viability ([1]; first compound 0.005 µM) | relative viability ([1]; first compound 0.01581 µM) | relative viability ([1]; first compound 0.05 µM) | relative viability ([1]; first compound 0.1581 µM) | relative viability ([1]; first compound 0.5 µM) | relative viability ([2]; first compound 0.005 µM) | relative viability ([2]; first compound 0.01581 µM) | relative viability ([2]; first compound 0.05 µM) | relative viability ([2]; first compound 0.1581 µM) | relative viability ([2]; first compound 0.5 µM) | relative viability (CUDC-101 + Trametinib; first compound 0.01 µM) | relative viability (CUDC-101 + Trametinib; first compound 0.03162 µM) | relative viability (CUDC-101 + Trametinib; first compound 0.1 µM) | relative viability (CUDC-101 + Trametinib; first compound 0.3162 µM) | relative viability (CUDC-101 + Trametinib; first compound 1 µM) | relative viability (CUDC-101 + Crizotinib; first compound 0.01 µM) | relative viability (CUDC-101 + Crizotinib; first compound 0.03162 µM) | relative viability (CUDC-101 + Crizotinib; first compound 0.1 µM) | relative viability (CUDC-101 + Crizotinib; first compound 0.3162 µM) | relative viability (CUDC-101 + Crizotinib; first compound 1 µM) |
| --- | --- | --- | --- | --- | --- | --- | --- | --- | --- | --- | --- | --- | --- | --- | --- | --- | --- | --- | --- | --- |
| HCC-44 | 0.957 | 0.958 | 0.964 | 0.967 | 0.835 | 1.12 | 0.984 | 1.01 | 0.997 | 0.998 | 1.04 | 1.08 | 1.04 | 1.05 | 1.03 | 0.661 | 0.712 | 0.752 | 0.779 | 0.748 |
| H3255 | 0.367 | 0.309 | 0.303 | 0.327 | 0.305 | 0.993 | 0.876 | 0.912 | 0.916 | 0.829 | 0.596 | 0.536 | – | 0.445 | 0.209 | 0.76 | 0.845 | 0.387 | 0.621 | 0.269 |
| LXF-289 | 0.46 | 0.6 | 0.612 | 0.625 | 0.503 | 1.01 | 1.17 | 1.06 | 1.27 | 0.982 | 0.689 | 0.671 | 0.659 | 0.605 | 0.539 | 0.804 | 0.835 | 0.828 | 0.736 | 0.577 |
| PC-14 | 0.34 | 0.479 | 0.515 | 0.559 | 0.441 | 0.334 | 0.238 | 0.396 | 0.514 | 0.302 | 0.928 | 0.605 | 0.619 | 0.233 | 0.0423 | 0.935 | 0.825 | 0.848 | 0.76 | 0.301 |
| EKVX | 0.294 | 0.367 | 0.41 | 0.531 | 0.285 | 0.704 | 0.777 | 0.682 | 0.85 | 0.604 | 0.353 | 0.349 | 0.335 | 0.407 | 0.224 | 0.977 | 0.892 | 0.964 | 1.07 | 0.604 |
| NCI-H322M | 0.427 | 0.501 | 0.484 | 0.476 | 0.488 | 0.522 | 0.522 | 0.436 | 0.564 | 0.56 | 0.507 | 0.477 | 0.517 | 0.44 | 0.411 | 0.958 | 0.903 | 0.774 | 0.748 | 0.538 |
| NCI-H1355 | 0.662 | 0.431 | 0.394 | 0.412 | 0.364 | 0.702 | 0.698 | 0.675 | 0.967 | 0.559 | 0.423 | 0.399 | 0.411 | 0.46 | 0.317 | 1.06 | 1.02 | 1.15 | 1.07 | 0.906 |
| ChaGo-K-1 | 0.731 | 0.979 | 0.903 | 1.01 | 0.911 | 0.781 | 0.886 | 0.911 | 0.884 | 0.764 | 0.958 | 0.898 | 0.909 | 0.87 | 0.784 | 1.17 | 1.14 | 1.12 | 1.2 | 0.924 |
| NCI-H2126 | 0.299 | 0.363 | 0.365 | 0.347 | 0.354 | 0.969 | 1.06 | 1.04 | 1.07 | 0.974 | 0.552 | 0.545 | 0.56 | 0.522 | 0.415 | 1.07 | 1.08 | 1.01 | 1.01 | 0.866 |
| NCI-H1755 | 0.431 | 0.44 | 0.481 | 0.5 | 0.644 | 0.458 | 0.539 | 0.506 | 0.542 | 0.43 | 0.794 | 0.761 | 0.784 | 0.792 | 0.812 | 0.81 | 0.896 | 0.828 | 0.942 | 0.743 |
| NCI-H358 | 0.135 | 0.139 | 0.15 | 0.141 | 0.119 | 0.579 | 0.492 | – | 0.592 | 0.496 | 0.142 | 0.135 | 0.119 | 0.143 | 0.115 | 0.558 | 0.581 | 0.435 | 0.497 | 0.236 |
| NCI-H2347 | 0.455 | 0.45 | 0.484 | 0.447 | 0.444 | 0.782 | 0.815 | 0.716 | 0.839 | 0.729 | 0.285 | 0.264 | 0.278 | 0.294 | 0.259 | 0.749 | 0.68 | 0.714 | 0.673 | 0.721 |
| HCC-15 | 0.701 | 0.771 | 0.734 | 0.74 | 0.627 | 1.02 | 1.23 | 1.25 | 1.51 | 1.24 | 0.396 | 0.382 | 0.385 | 0.399 | 0.262 | 0.804 | 0.836 | 0.798 | 0.843 | 0.715 |
| NCI-H23 | – | 0.456 | 0.528 | 0.577 | 0.411 | – | 0.239 | 0.254 | 0.175 | 0.249 | 0.338 | 0.357 | 0.413 | 0.373 | 0.351 | 0.68 | 0.442 | 0.639 | 0.547 | 0.495 |
| LC-2-ad | 0.365 | 0.526 | 0.473 | 0.509 | 0.399 | 0.674 | 0.847 | 0.83 | 0.968 | 0.692 | 0.929 | 0.913 | 0.912 | 0.823 | 0.773 | 0.454 | 0.482 | 0.432 | 0.436 | 0.343 |
| LCLC-97TM1 | 0.236 | 0.265 | 0.235 | 0.251 | 0.19 | 0.153 | 0.192 | 0.342 | 0.291 | 0.21 | 0.175 | 0.193 | 0.223 | 0.227 | 0.164 | 0.549 | 0.386 | 0.443 | 0.343 | 0.17 |
